Results published in the NIST ThermoML archive (doi:10.1016/j.tca.2013.08.017).
Numbers after ± are expanded uncertainties.

Tests used:
[1] = 101.33 kPa, Crystal, X-ray diffraction
[2] = molar heat capacity at constant pressure; settings: 101.33 kPa, Small sample (50 mg) DSC

CC(C)(C)n1ncc2c(-c3ccccc3)n[nH]c(=O)c21
Settings | mass density [kg/m3]
[1], 296 K | 1298 ± 6

[2], Crystal
Settings | molar heat capacity at constant pressure [J/K/mol]
273 K | 944.5 ± 19
283 K | 1034.5 ± 21
293 K | 1124.7 ± 22
303 K | 1216.4 ± 24
313 K | 1310.8 ± 26
323 K | 1409.1 ± 28
333 K | 1512.5 ± 30
343 K | 1622.1 ± 32
353 K | 1739.2 ± 35
363 K | 1865 ± 37
373 K | 2000.7 ± 40
383 K | 2147.5 ± 43
393 K | 2306.5 ± 46
403 K | 2479 ± 50
413 K | 2666.2 ± 53
423 K | 2869.3 ± 57

CC(C)(C)n1ncc2c(C(F)(F)F)n[nH]c(=O)c21
Settings | mass density [kg/m3]
[1], 293 K | 1451 ± 7

[2]
Settings | molar heat capacity at constant pressure [J/K/mol]
273 K, Crystal | 174 ± 3.5
283 K, Crystal | 202.9 ± 4.1
293 K, Crystal | 231.9 ± 4.6
303 K, Crystal | 260.8 ± 5.2
313 K, Crystal | 289.8 ± 5.8
323 K, Crystal | 318.7 ± 6.4
333 K, Crystal | 347.6 ± 7
343 K, Crystal | 376.6 ± 7.5
353 K, Crystal | 405.5 ± 8.1
363 K, Crystal | 434.4 ± 8.7
373 K, Crystal | 463.4 ± 9.3
383 K, Crystal | 492.3 ± 9.8
393 K, Crystal | 521.2 ± 10
403 K, Crystal | 550.2 ± 11
413 K, Crystal | 579.1 ± 12
423 K, Crystal | 608.1 ± 12
448 K, Liquid | 813.3 ± 16
458 K, Liquid | 923.4 ± 18
463 K, Liquid | 978.4 ± 20
